From PMC10601815, “αβ,α′β′-Diepoxyketones are mechanism-based inhibitors of nucleophilic cysteine enzymes” (Chemical Communications (Cambridge, England), 2023) come the findings set out here.

For series [1] the following is noted: for kchem (kinetic rate constant for reactivity with GSH): 500 nM L-glutathione, 10 µM Probe 1, pH 7.2; for half-life (t1/2) of reaction with GSH: buffer.
Series [2] addresses T1, LdtMt2 (Mycobacterium tuberculosis, UniProt I6Y9J2). As to the kind of experiment: biochemical.
Series [3] addresses T1, LdtMt2. The format is binding.
In series [4] the target is T1, LdtMt2. As to the kind of experiment: biochemical. The settings on record: for IC50: read-out: pIC50 LdtMt2 (converted).
Setting [5] is: 1 µM LdtMt2, inhibitor 20 µM (100 µM for 12), rt, 15 min.
[6] abbreviates: 1 µM LdtMt2, inhibitor 20 µM (100 µM for 12), rt, 24 h.

For orientation: kinact/KI means the second-order rate constant of inactivation.

Values joined by “and” are separate entries in the source; they are usually repeats but may differ in a detail not shown here. Equal entries are not always repeated. Where two headings read alike, the source gives them in different places. Bounds are passed on as bounds.

T1 sequence (I6Y9J2 56-408): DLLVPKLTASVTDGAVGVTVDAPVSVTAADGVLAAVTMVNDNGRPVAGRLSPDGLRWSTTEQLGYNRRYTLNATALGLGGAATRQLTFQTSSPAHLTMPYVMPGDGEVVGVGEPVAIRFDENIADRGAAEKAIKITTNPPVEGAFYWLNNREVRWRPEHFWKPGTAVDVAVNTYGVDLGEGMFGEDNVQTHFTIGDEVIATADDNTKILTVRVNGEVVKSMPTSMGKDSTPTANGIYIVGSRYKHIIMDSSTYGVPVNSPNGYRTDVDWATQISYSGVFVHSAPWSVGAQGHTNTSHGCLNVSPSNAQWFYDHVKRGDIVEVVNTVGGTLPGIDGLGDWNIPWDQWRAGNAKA

On to `COc1ccccc1C1OC1C(=O)C1OC1c1ccccc1OC` (mixture of isomers) [DEK 5], for which the “kchem (kinetic rate constant for reactivity with GSH)” value (from here on “kchem”) in series [1] is below 0.8 M⁻¹ s⁻¹. Also, at LdtMt2 [2], the “kinact/KI LdtMt2” value is 61.1 ± 2.78 M⁻¹ s⁻¹. At LdtMt2 [3], the “Area (%) 15 min, adduct with assignment N.D. (+309 Da for 5, +80 Da for 8 and 9)” value (“Area (%) 15 min, adduct” for short) was 0.0%; the “Area (%) 15 min, assignment Dha (-34 Da)” value was 0.0%; the “Area (%) 15 min, assignment Retro-aldol fragment (3)” value (from here on “Area (%) 15 min … (3)”) was found to be 9.0%; the “Area (%) 15 min, assignment Unassigned fragment / Fragment II (+56/+57 Da)” value is 0.0%. For the same compound, on LdtMt2 [3], the “Area (%) 15 min, assignment Unfragmented (2)” value (“Area (%) 15 min … (2)” below) amounted to 77.9%; the “Area (%) 15 min, assignment Unmodified LdtMt2” value worked out at 2.5%; the “Area (%) 24 h, adduct with assignment N.D. (+309 Da for 5, +80 Da for 8 and 9)” value (shortened to “Area (%) 24 h, adduct”) was determined as 4.22%; the “Area (%) 24 h, assignment Dha (-34 Da)” value was ~30% and 30.4%. At LdtMt2 [3], the “Area (%) 24 h, assignment Retro-aldol fragment (3)” value (“Area (%) 24 h … (3)” for short) turned out to be 39.6%; the “Area (%) 24 h, assignment Unfragmented (2)” value (from here on “Area (%) 24 h … (2)”) is on record as 0.0%; the “Area (%) 24 h, assignment Unmodified LdtMt2” value came to 0.0%.

For `Cc1cccc(C)c1C1OC1C(=O)C1OC1c1c(C)cccc1C` (mixture of isomers) [DEK 8], in series [1], the “kchem” value was 1.11 ± 0.20 M⁻¹ s⁻¹ and 1.1 ± 0.2 M⁻¹ s⁻¹; the “half-life (t1/2) of reaction with GSH” value amounted to 38 min. Moreover, on LdtMt2 [2], the “inhibition of LdtMt2 in the kinact/KI determination (in words)” value is listed as “no evidence for inhibition” and the “kinact/KI LdtMt2” value is below 10.0 M⁻¹ s⁻¹. Moreover, on LdtMt2 [3], the “Area (%) 15 min, adduct” value is 0.0%; the “Area (%) 15 min … (3)” value is listed as 0.0%; the “Area (%) 15 min, assignment Unmodified LdtMt2” value was 100.0%; the “Area (%) 24 h, adduct” value is recorded as 14.9%. Further, at LdtMt2 [3], the “Area (%) 24 h … (3)” value stood at 16.3% and the “Area (%) 24 h, assignment Unmodified LdtMt2” value is given as 68.8%.

Consider `O=C(C1OC1c1ccccc1)C1OC1c1ccccc1` (mixture of isomers) [diastereomeric mixture of 1], for which the “pIC50 LdtMt2” value against LdtMt2 [4] was 5.59 ± 0.036 and 5.6 ± 0.04.

On to `O=C(c1ccccc1)C1OC1c1ccccc1` (racemic) [Epoxide 12, reference compound], for which, at LdtMt2 [4], the “inhibition of LdtMt2 in dose-response assays (in words)” value is reported as “did not manifest inhibition” and the “pIC50 LdtMt2” value is recorded as below 4.4. On LdtMt2 [3], the “Area (%) 15 min … (3)” value is reported as 0.0%; the “Area (%) 15 min … (2)” value was found to be 8.6%; the “Area (%) 15 min, assignment Unmodified LdtMt2” value is 91.4%; the “Area (%) 24 h … (3)” value worked out at 87.2%. Moreover, at LdtMt2 [3], the “Area (%) 24 h … (2)” value was found to be 0.0%; the “Area (%) 24 h, assignment Unmodified LdtMt2” value is given as 12.8%; the “covalent reaction with LdtMt2 (in words)” value is “evidenced covalent reaction”.

In the case of `Cc1cc(C)cc([C@@H]2O[C@H]2C(=O)[C@@H]2O[C@H]2c2cc(C)cc(C)c2)c1` (relative stereo) [DEK 7], in series [1], the “kchem” value is 1.71 ± 0.24 M⁻¹ s⁻¹ and 1.7 ± 0.2 M⁻¹ s⁻¹; the “half-life (t1/2) of reaction with GSH” value came out at 24 min. On LdtMt2 [2], the “kinact/KI LdtMt2” value turned out to be 80.9 ± 6.74 M⁻¹ s⁻¹. Also, at LdtMt2 [3], the “Area (%) 15 min, assignment Dha (-34 Da)” value is 0.0%; the “Area (%) 15 min … (3)” value turned out to be 43.7%; the “Area (%) 15 min, assignment Unassigned fragment / Fragment II (+56/+57 Da)” value is 0.0%; the “Area (%) 15 min … (2)” value is listed as 44.8%. In addition, at LdtMt2 [3], the “Area (%) 15 min, assignment Unmodified LdtMt2” value is given as 11.5%; the “Area (%) 24 h, assignment Dha (-34 Da)” value is ~16% and 16.2%; the “Area (%) 24 h … (3)” value was found to be 70.3%; the “Area (%) 24 h … (2)” value turned out to be 0.0%. Also, the “Area (%) 24 h, assignment Unmodified LdtMt2” value at LdtMt2 [3] turned out to be 0.0%.

On to `O=C([C@H]1O[C@@H]1c1ccccc1)[C@@H]1O[C@H]1c1ccccc1` [DEK 1], for which the “kchem” value in series [1] is below 0.8 M⁻¹ s⁻¹. For the same compound, the IC50 at LdtMt2 [4] (15 min preincubation, 100 nM LdtMt2, 25 µM Probe 1, n=4) is 617 nM and 631 nM. Also, the IC50 at LdtMt2 [4] (30 min pre-incubation) is 63.1 nM. Besides, the IC50 at LdtMt2 [4] (Table S3, 10 min pre-incubation, 100 nM LdtMt2, 25 µM Probe 1) was 1000 nM. Also, at LdtMt2 [2] (100 nM LdtMt2, 10 µM Probe 1, 3.5 h), the kinact/KI turned out to be 484 ± 28.4 M⁻¹ s⁻¹. For the same compound, on LdtMt2 [3] (setting [5]), the “Area (%) 15 min, assignment Dha (-34 Da)” value was determined as 0.0%; the “Area (%) 15 min … (3)” value is reported as 23.3%; the “Area (%) 15 min … (2)” value is 74.7%; the “Area (%) 15 min, assignment Unmodified LdtMt2” value worked out at 2.0%. Besides, at LdtMt2 [3] (setting [6]), the “Area (%) 24 h, assignment Dha (-34 Da)” value was ~5% and 5.0%; the “Area (%) 24 h … (3)” value turned out to be 82.0%; the “Area (%) 24 h … (2)” value is recorded as 7.2%; the “Area (%) 24 h, assignment Unmodified LdtMt2” value is 0.0%. For the same compound, the “Area (%) 15 min, assignment Unassigned fragment / Fragment II (+56/+57 Da)” value on LdtMt2 [3] (1 µM LdtMt2, inhibitor 20 µM, rt, 15 min) is 0.0%. Also, the “covalent reaction with LdtMt2 (in words)” value on LdtMt2 [3] (1 µM LdtMt2, inhibitor 20 µM (100 µM for 12)) was “covalently reacts with LdtMt2”. The “time for conversion of the initial adduct (2, +267 Da) into the +160 Da adduct (3)” value on LdtMt2 [3] (1 (20 µM), LdtMt2 (1 µM)) is at most 2 h.

`O=C(C1OC1c1ccc(OC(F)(F)F)cc1)C1OC1c1ccc(OC(F)(F)F)cc1` (stereo not shown) [DEK 4]: the “kchem” value in series [1] was below 0.8 M⁻¹ s⁻¹. On LdtMt2 [2], the “inhibition of LdtMt2 in the kinact/KI determination (in words)” value is given as “no evidence for inhibition” and the “kinact/KI LdtMt2” value is below 10.0 M⁻¹ s⁻¹. At LdtMt2 [3], the “Area (%) 15 min, assignment Dha (-34 Da)” value was determined as 0.0%; the “Area (%) 15 min … (3)” value stood at 18.1%; the “Area (%) 15 min … (2)” value was 5.41%; the “Area (%) 15 min, assignment Unmodified LdtMt2” value is given as 76.5%. Besides, at LdtMt2 [3], the “Area (%) 24 h, assignment Dha (-34 Da)” value is ~2.5% and 2.4%; the “Area (%) 24 h … (3)” value turned out to be 97.6%; the “Area (%) 24 h … (2)” value came out at 0.0%; the “Area (%) 24 h, assignment Unmodified LdtMt2” value is 0.0%.

In the case of `O=C(C1OC1c1ccccc1OC(F)(F)F)C1OC1c1ccccc1OC(F)(F)F` (stereo not shown) [DEK 6], in series [1], the “kchem” value was below 0.8 M⁻¹ s⁻¹. At LdtMt2 [2], the “kinact/KI LdtMt2” value came out at 140.6 ± 17.1 M⁻¹ s⁻¹. Also, at LdtMt2 [3], the “Area (%) 15 min … (3)” value was 11.6%; the “Area (%) 15 min, assignment Unassigned fragment / Fragment II (+56/+57 Da)” value is reported as 0.0%; the “Area (%) 15 min … (2)” value came to 81.2%; the “Area (%) 15 min, assignment Unmodified LdtMt2” value worked out at 7.2%. Besides, on LdtMt2 [3], the “Area (%) 24 h, assignment Dha (-34 Da)” value is “no evidence for Dha formation”; the “Area (%) 24 h … (3)” value worked out at 93.2%; the “Area (%) 24 h … (2)” value is on record as 0.0%; the “Area (%) 24 h, assignment Unmodified LdtMt2” value turned out to be 2.6%.

As to `O=C1C2(CCC13OC3c1ccccc1)OC2c1ccccc1` (stereo not shown) [DEK 9], in series [1], the “kchem” value is below 0.8 M⁻¹ s⁻¹. On LdtMt2 [2], the “kinact/KI LdtMt2” value worked out at 25.8 ± 1.41 M⁻¹ s⁻¹. On LdtMt2 [3], the “Area (%) 15 min, adduct” value is recorded as 6.9%; the “Area (%) 15 min … (3)” value is 68.8%; the “Area (%) 15 min … (2)” value is listed as 21.0%; the “Area (%) 15 min, assignment Unmodified LdtMt2” value is recorded as 3.3%. For the same compound, at LdtMt2 [3], the “Area (%) 24 h, adduct” value turned out to be 9.1%; the “Area (%) 24 h … (3)” value is given as 90.9%; the “Area (%) 24 h … (2)” value is 0.0%; the “Area (%) 24 h, assignment Unmodified LdtMt2” value is 0.0%.

Take `O=C1C2(CCCC13OC3c1ccccc1)OC2c1ccccc1` (stereo not shown) [DEK 10]: the “kchem” value in series [1] is below 0.8 M⁻¹ s⁻¹. The “pIC50 LdtMt2” value on LdtMt2 [4] was below 4.4. In addition, at LdtMt2 [2], the “inhibition of LdtMt2 in the kinact/KI determination (in words)” value is “no evidence for inhibition” and the “kinact/KI LdtMt2” value was below 10.0 M⁻¹ s⁻¹. At LdtMt2 [3], the “Area (%) 15 min … (2)” value turned out to be 0.0%; the “Area (%) 15 min, assignment Unmodified LdtMt2” value is given as 100.0%; the “Area (%) 24 h … (2)” value came out at 9.8%; the “Area (%) 24 h, assignment Unmodified LdtMt2” value was 90.2%.

With `O=C1C2(CCCCC13OC3c1ccccc1)OC2c1ccccc1` (stereo not shown) [DEK 11], the “pIC50 LdtMt2” value against LdtMt2 [4] is below 4.4. In addition, on LdtMt2 [3], the “Area (%) 15 min, assignment Unmodified LdtMt2” value was 100.0% and the “Area (%) 24 h, assignment Unmodified LdtMt2” value stood at 100.0%.
